31 compounds from ChEMBL document CHEMBL2384968, “Characterization of maleimide-based glycogen synthase kinase-3 (GSK-3) inhibitors as stimulators of steroidogenesis” (J Med Chem, 2013) can be followed below.

Usually IC50 stands for the concentration that gives 50% inhibition. A high value points to a need for much substance.

In brackets after ≈: the same amount, converted by molar mass.

Data set [1] can be described thus: Cytotoxicity against mouse MA-10 cells at 0.1 to 100 uM after 2 hrs by MTT assay. It is filed as cell-based. Particulars: ma-10, 2 h.
The nature of data set [2]: Cytotoxicity against mouse MA-10 cells at 100 uM after 2 hrs by MTT assay. It is filed as cell-based. Particulars: ma-10, 2 h. A general note: Formazan colour is commonly taken as a measure of viable cells.
Data set [3] has as its target Glycogen synthase kinase-3 beta (Homo sapiens, UniProt P49841). The data set is described as follows: Inhibition of human GSK3beta-mediated YRRAAVPPSPSLSRHSSPHQ(pS)EDEEE phosphorylation.
The nature of data set [4]: Kinetic aqueous solubility of the compound by HPLC analysis. The note with it: read-out: Kinetic_solubility. The class given is physicochemical.

Glycogen synthase kinase-3 beta, sequence (P49841 whole entry): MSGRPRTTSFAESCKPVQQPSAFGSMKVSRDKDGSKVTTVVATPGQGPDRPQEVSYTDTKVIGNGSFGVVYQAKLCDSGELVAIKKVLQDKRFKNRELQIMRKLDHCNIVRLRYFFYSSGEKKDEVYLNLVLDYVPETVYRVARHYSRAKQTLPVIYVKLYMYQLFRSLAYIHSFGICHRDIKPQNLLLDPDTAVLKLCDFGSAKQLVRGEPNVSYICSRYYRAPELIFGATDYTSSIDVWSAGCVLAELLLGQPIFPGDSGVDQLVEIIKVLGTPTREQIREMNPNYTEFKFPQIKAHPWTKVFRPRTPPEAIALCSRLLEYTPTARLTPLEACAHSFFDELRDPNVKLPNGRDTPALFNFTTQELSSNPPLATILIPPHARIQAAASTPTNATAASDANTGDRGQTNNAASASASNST

With `O=C1NC(=O)C(c2cn3c4c(cc(Br)cc24)CNCC3)=C1c1coc2ccccc12`, the Activity result in data set [1] and in data set [2] was “Toxic” each time. For the same compound, inhibition in data set [3] was half-maximal at 11.5 nM (IC50).

As for `O=C1NC(=O)C(c2cn3c4c(cccc24)CN(C(=O)c2cnccn2)CC3)=C1c1coc2ccccc12`, the Activity entry in data set [1] and in data set [2] was “Toxic” in each case. In data set [3], this compound came in with an IC50 of 0.2 nM.

In the case of `COc1cc2c(C3=C(c4coc5ccccc45)C(=O)NC3=O)cn(C)c2cn1`, in data set [1], the Activity entry is recorded as “Non-toxic”. Also, the IC50 in data set [3] is 65.9 nM.

`O=C1NC(=O)C(c2cn3c4c(cc(F)cc24)CNCC3)=C1c1coc2ccccc12`: the Activity entry in data set [1] and in data set [2] was “Toxic” each time. Besides, in data set [3], the IC50 came to 3.7 nM.

As for `COCCn1cc(C2=C(c3coc4ccccc34)C(=O)NC2=O)c2cccnc21`, the Activity result in data set [1] and in data set [2] was “Toxic” in each case. In data set [3], the half-inhibitory concentration (IC50) stood at 58.2 nM.

With `COCCn1cc(C2=C(c3coc4ccccc34)C(=O)NC2=O)c2cc(F)ccc21`, the IC50 in data set [3] turned out to be 39.7 nM. This counts as double-digit nanomolar.

Turning to `COCCn1cc(C2=C(c3coc4ccccc34)C(=O)NC2=O)c2cc(F)c(F)cc21`, the Activity result in data set [1] and in data set [2] was “Toxic” in each case. 35.7 nM corresponded to half-maximal inhibition in data set [3] (IC50).

Take `O=C1NC(=O)C(c2cn3c4c(cc(F)cc24)CN(C(=O)N2CCC(N4CCCCC4)CC2)CC3)=C1c1coc2ccccc12`: the Activity result in data set [1] and in data set [2] was “Toxic” in each case. The IC50 in data set [3] was 0.53 nM.

For the compound `COCCn1cc(C2=C(c3coc4ccccc34)C(=O)NC2=O)c2cc(Br)ccc21`, in data set [3], the IC50 was 82.3 nM.

`NCCn1cc(C2=C(c3coc4ccccc34)C(=O)NC2=O)c2cc(F)ccc21` yielded an IC50 in data set [3] of 41.1 nM.

`O=C1NC(=O)C(c2cn(CCCO)c3ccc(F)cc23)=C1c1coc2ccccc12`: half-maximal inhibition in data set [3] (IC50) required 15 nM.

With `Cn1cc(C2=C(c3coc4ccccc34)C(=O)NC2=O)c2cc(Br)cnc21`, the Activity result in data set [1] and in data set [2] was “Non-toxic” throughout. Besides, in data set [3], the IC50 stood at 5.3 nM.

In the case of `COCCn1cc(C2=C(c3coc4ccccc34)C(=O)NC2=O)c2ccccc21`, the Activity result in data set [1] and in data set [2] was “Non-toxic” throughout. The same compound displayed a half-inhibitory concentration (IC50) in data set [3] of 19.8 nM.

With `O=C1NC(=O)C(c2cn3c4c(cccc24)CNCC3)=C1c1coc2ccccc12`, the solubility kinetic in data set [4] was 240 µg/mL (≈ 626 µM). In data set [3], this compound displayed an IC50 of 4.2 nM.

For `Cn1cc(C2=C(c3coc4ccccc34)C(=O)NC2=O)c2cccnc21`, the concentration for half-maximal inhibition (IC50) in data set [3] came out at 17.6 nM. In other words, the double-digit nanomolar range.

`O=C1NC(=O)C(c2cn3c4c(cccc24)CN(C(=O)Cc2ccncc2)CC3)=C1c1coc2ccccc12`: the Activity result in data set [1] and in data set [2] was “Toxic” each time. Further, 0.59 nM corresponded to half-maximal inhibition in data set [3] (IC50).

On to `Cn1cc(C2=C(c3cnc4ccccn34)C(=O)NC2=O)c2cc3c(cc21)OCO3`, for which the IC50 in data set [3] worked out at 5.3 nM.

Compound `O=C1NC(=O)C(c2cn(CCO)c3ccc(Br)cc23)=C1c1coc2ccccc12` registered an IC50 in data set [3] of 21.4 nM.

On to `COCCc1cccc2c(C3=C(c4coc5ccccc45)C(=O)NC3=O)cn(CCOC)c12`, for which the Activity result in data set [1] and in data set [2] was “Toxic” in each case. The same compound had an IC50 in data set [3] of 114 nM.

Regarding `COCCc1cccc2c(C3=C(c4coc5ccccc45)C(=O)NC3=O)cn(C)c12`, the Activity entry in data set [1] and in data set [2] was “Non-toxic” throughout. The compound further had an IC50 in data set [3] of 11.2 nM.

Consider `Cn1cc(C2=C(c3coc4ccccc34)C(=O)NC2=O)c2cc(Br)ccc21`, for which the Activity result in data set [1] and in data set [2] was “Non-toxic” throughout.

In the case of `Cn1cc(C2=C(c3cnc4ccccn34)C(=O)NC2=O)c2cc(Br)ccc21`, the Activity result in data set [1] is reported as “Non-toxic”. The solubility kinetic in data set [4] was found to be 35 µg/mL (≈ 83.1 µM). In data set [3], half-maximal inhibition (IC50) required 0.87 nM.

Consider `O=C1NC(=O)C(c2cn3c4c(cc(F)cc24)CN(C(=O)N2CCOCC2)CC3)=C1c1coc2ccccc12`, for which the Activity entry in data set [1] and in data set [2] was “Toxic” in each case. Besides, in data set [3], the concentration for half-maximal inhibition (IC50) was determined as 0.013 nM.

Consider `O=C1NC(=O)C(c2cn3c4c(cc(F)cc24)CN(C(=O)N2CCCCC2)CC3)=C1c1coc2ccccc12`, for which the Activity result in data set [1] was “Non-toxic”. The IC50 in data set [3] amounted to 1.9 nM.

`CNCCCn1cc(C2=C(c3coc4ccccc34)C(=O)NC2=O)c2cc(F)ccc21` had an IC50 in data set [3] of 202 nM. In other words, the sub-micromolar range.

With `Cn1cc(C2=C(c3coc4ccccc34)C(=O)NC2=O)c2cccc(CCOC(C)(C)C)c21`, in data set [3], it took 148 nM to reach half-maximal inhibition (IC50).

For `CNCCCn1cc(C2=C(c3coc4ccccc34)C(=O)NC2=O)c2cc(Br)ccc21`, the IC50 in data set [3] came to 404 nM.

For `O=C1NC(=O)C(c2cn(CCO)c3ccc(F)cc23)=C1c1coc2ccccc12`, the IC50 in data set [3] came out at 4.8 nM.

Regarding `COCCn1cc(C2=C(c3coc4ccccc34)C(=O)NC2=O)c2cc(Br)cnc21`, the Activity entry in data set [1] and in data set [2] was “Non-toxic” each time. Further, in data set [3], the IC50 was 25.2 nM.

`NCCn1cc(C2=C(c3coc4ccccc34)C(=O)NC2=O)c2cc(Br)ccc21`: the solubility kinetic in data set [4] is 180 µg/mL (≈ 400 µM). This compound also came in with an IC50 in data set [3] of 116 nM.

Compound `COCCn1cc(C2=C(c3coc4ccccc34)C(=O)NC2=O)c2cc(OC)ncc21` showed an IC50 in data set [3] of 127 nM. This counts as sub-micromolar.
